The values that follow come from US20170107486A1, “HEPATOCYTE PRODUCTION VIA FORWARD PROGRAMMING BY COMBINED GENETIC AND CHEMICAL ENGINEERING” (Cellular Dynamics International, Inc., priority 2014, published 2017).

The test system of experiment [1] is human rtTET-expressing ESCs transfected with GFH, H1ANR3 and TBX3. Put plainly: Hepatic programming efficiency, albumin (ALB) flow analysis. Particulars: for % ALB-expressing cells (hepatic programming efficiency): 0.5 μM added alone along with doxycycline between day 1 and day 7 post-plating, ALB flow analysis on day 13, FIG. 6. The experiment is classed as cell-based. From the text: Genes that are either implicated in hepatic differentiation during normal mammalian development or enriched in adult hepatocytes were cloned into the PiggyBac vector (FIG. 3) under the control of the […] promoter (Table 1). To find transcription factors that are able to directly impose mature hepatic fate upon human ESCs, various combinations of transgene-expressing PiggyBac vectors along with the hPBase-expressing vector were introduced into the human ESCs having constitutive expression of rtTET through nucleofection (Minis Ingenio Electroporation solution: cat# MIR50114; program: Amaxa B-016). Nucleofected human ESCs were cultured on matrigel in mTeSR1 (Stem Cell Technologies). Following geneticin (100 μg/ml) selection for stable genomic transgene integration (cells were passaged at lease once prior to differentiation), human ESCs were individualized by accutase treatment and plated to matrigel-coated 12-well plates. Doxycycline (1 μg/ml) was added the next day to induce transgene expression in Hepatocyte Maintenance Medium (HMM, Lonza) supplemented with 0.5 μg/ml insulin, 0.1 μM dexamethasone (dex), and 50 ng/ml Oncostatin M (OSM). After transgene induction for the appropriate number of days, doxycycline was removed, and cells were allowed to transition to hepatocyte-like cells and were maintained in HMM supplemented with 0.5 μg/ml insulin, 0.1 μM dex, and 50 ng/ml OSM prior to characterization. Where appropriate, small molecules, such as MEK inhibitor PD0325901, […] kinase/activin receptor like kinase (ALK5) inhibitor A 83-01, and an analogue of the natural signaling molecule cyclic AMP 8-Bromoadenosine 3',5'-cyclic monophosphate (8-Br-cAMP), were added during hepatic programming. To determine the effect of MEK inhibitor PD0325901 (P) and TGFβ kinase/activin receptor like kinase (ALK5) inhibitor A 83-01 (A) on hepatic programming efficiency, human rtTET-expressing ESCs transfected with […]3 and TBX3 were plated on matrigel-coated 12-well plates at about 0.2×10^6 cells/well in mTeSR supplemented with 10 μM HA100 on day 0. PD0325901 (0.5 μM), A 83-01 (0.5 μM) or both were added along with doxycycline between day 1 and day 7 post-plating. Cells were collected for albumin (ALB) flow analysis on day 13 post-plating. […] To determine the effect of cyclic AMP analog 8-Br-cAMP on hepatic programming, human rtTET-expressing ESCs transfected with […]3 and TBX3 were plated on matrigel-coated 12-well plates at about 0.2×10^6 cells/well in mTeSR supplemented with 10 μM HA100 on day 0. Doxycycline (1 μg/ml), P and A were added between day 1 and day 7 post-plating. Following the removal of doxycycline, P and A on day 7, different concentrations of 8-Br-cAMP were added to promote hepatic transition. Cells were collected for ALB flow analysis on day 13 post-plating.

The test system of experiment [2] is MEK1 and MEK2. Particulars: Bain et al., 2007; cited from earlier work.

In the case of `Nc1ncnc2c1nc(Br)n2[C@@H]1O[C@@H]2COP(=O)(O)O[C@H]2[C@H]1O` [8-Br-cAMP, 8-Bromoadenosine 3′,5′-cyclic monophosphate], the “saturation concentration for improvement of hepatic programming” value in experiment [1] (added from day 7 after removal of doxycycline, P and A, ALB flow analysis day 13, FIG. 8) is roughly 200 µM. The “hepatic programming (ALB flow analysis)” value in experiment [1] (different concentrations added from day 7 after removal of doxycycline, P and A, ALB flow analysis day 13, FIG. 8) is on record as “significantly improved”.

For `Cc1cccc(-c2nn(C(=S)Nc3ccccc3)cc2-c2ccnc3ccccc23)n1` [A 83-01], the “% ALB-expressing cells (hepatic programming efficiency)” value in experiment [1] is reported as “significantly improves”.

For `O=C(NOCC1CC1)c1ccc(F)c(F)c1Nc1ccc(I)cc1Cl` [PD184352], the “specificity and potency compared to other known MEK inhibitors” value in experiment [2] is “high degree of specificity and potency”.

Regarding `O=C(NOC[C@H](O)CO)c1ccc(F)c(F)c1Nc1ccc(I)cc1F` [PD0325901], the “% ALB-expressing cells (hepatic programming efficiency)” value in experiment [1] is “significantly improves”.
